Laboratory results: patent US5116851A, “Pharmaceutical composition and method for treating cardiovascular diseases using substituted anilides and sulfonamides” (E. R. Squibb & Sons, Inc., priority 1990, dated 1992)
Counter-ions that a name gives are not always drawn.

Assays:
[1] = system: Ischemic and Nonischemic Isolated Rat Heart; assay: Isolated perfused rat heart (Langendorff), global ischemia/reperfusion: cardiac function, flow and LDH release; parameters: species or system rat (male Sprague-Dawley); FLOW (coronary blood flow): unit not given here; conditions: for DP (Double Product, HR x LVDP / 1,000) / FLOW (coronary blood flow) / HR (Heart Rate) / LVDP (Left Ventricular Developed Pressure) / LDH (Lactate Dehydrogenase Release) / LDH/DP: 1 μM; for LDH (Lactate Dehydrogenase Release): Postischemia, cumulative over 30 min reperfusion, per g preischemia heart weight, lower = greater cardioprotection; for LDH/DP: ratio of cardioprotection to cardiodepression, lower = greater selectivity
Method: Lactate dehydrogenase is an enzyme released in the heart during an ischemic event and is an index of cardiac cell necrosis. In the Grover et al. model, this is measured during reperfusion and an agent which provides for lower release levels of LDH is considered to offer greater cardioprotection since lower LDH indicates a smaller infarct size. Cardiac function is determined using the double product (DP) of heart rate times the left ventricular developed pressure (LVDP) divided by 1,000.
The lower the value for DP before ischemia for a given agent, the more cardiodepressant it is considered to be.
Male Sprague-Dawley rats (450-550 g) were used in all experiments. The rats were anesthetized using 30 mg/kg sodium pentobarbital (i.p.). They were intubated and then treated with i.v. heparin (1000 U/kg). While being mechanically ventilated, their hearts were perfused in situ via retrograde cannulation of the aorta. The hearts were then excised and quickly moved to a Langendorff apparatus where they were perfused with Krebs-Henseleit bicarbonate buffer (112 mM NaCl, 5 mM KCl, 1.2 mMMg SO4, 1 mM KH2 PO4, 1.25 mM CaCl2, 11.5 mM dextrose, and 2 mM pyruvate) at a constant pressure (75 mm Hg). A water filled latex balloon attached to a metal cannula was then inserted into the left ventricle and connected to a Statham pressure transducer for measurement of left ventricular pressure. The hearts were allowed to equilibrate for 15 minutes at which time end diastolic pressure (EDP) was adjusted to 5 mm Hg and this was maintained for 5 minutes. Pre-ischemia or pre-drug function, heart rate and coronary blood flow (extracorporeal electromagnetic flow probe, Carolina Medical Electronics, King, N.C.) were then measured. Cardiac function was determined using the double product of heart rate (HR) times left ventricular developed pressure (LVDP) divided by 1,000.
All of these hearts were treated with their respective drugs or vehicle for ten minutes. At this time, post-drug cardiac function and flow were measured and then the hearts were made globally ischemic by shutting off the buffer perfusion. The ischemia was maintained for 25 minutes at which time reperfusion with nondrug treated buffer was instituted. Reperfusion was maintained for 30 minutes and at this time reperfusion function and flow were again determined.
At the end of the reperfusion period, the reperfusion buffer was sampled for cumulative LDH release as previously described. LDH release was expressed as U/g preischemia heart weight for the 30 minute collection period. LDH release is a sensitive index for loss of cell viability. Determination of the relationship between pre-ischemic, post-drug cardiac function was made by dividing the double product (HR ×LVDP/1000) by the cumulative LDH release.
All data were analyzed using a one way analysis of variance. Multiple comparisons were done using the Duncan procedure. All data are expressed as the mean±SE.
The pre-ischemia DP values are a measure of the cardiodepression of the drug on the healthy cardiac tissue.
The post-ischemia LDH values are a measure of the cardioprotection or anti-ischemic activity of the drug. In this case, lower values indicate greater anti-ischemic activity or greater cardioprotection.
The LDH/DP values are the ratio of cardioprotection to cardiodepression, the lower values indicating a greater selectivity for anti-ischemic activity.
The post-ischemia DP indicates cardiodepression after the ischemic episode and the lower DP values here are indicative of agents which still remained in the cardiac tissue for more than 30 minutes post ischemia. [drawing 16]

[2] = system: rabbit aorta; assay: Reduction of tone of rabbit aorta by high potassium (Vasc. Ca^++ Block); format: cell-based; conditions: Oryctolagus cuniculus; read-out: IC50 in reducing tone of rabbit aorta by high potassium (Vasc. Ca^++ Block)
Text: |(SAPA), in reducing maximum upstroke velocity (Vmax) |and in reducing tone of rabbit aorta by high potassium |(Vasc. Ca^++ Block)

[3] = system: isolated canine cardiac Purkinje fibers; assay: Calcium-dependent slow response action potential amplitude (SAPA), standard microelectrode techniques; format: cell-based; conditions: Canis lupus familiaris, read-out: IC50 in reducing slow response action potential amplitude (SAPA)
Method: The calcium channel blocking and sodium entry blocking activities of compounds of the present invention were tested using standard microelectrode techniques in isolated canine cardiac Purkinje fibers as reported in J. L. Bergey et al., "Antiarrhythmic, hemodynamic, and cardiac electrophysiological evaluation of N-(2,6-dimethylphenyl)-N'-[3-(1-methylethylamino)propyl]-urea), (Wy 42,362)", Arzneim -Forsch, 33:1258, 1983). […] Depression of this parameter indicates depression of calcium entry into cardiac tissue. […] Significant depression of the upstroke velocity (vmax) indicates the blocking of sodium entry into cardiac tissue.

[4] = Postischemia (30 min.), occlusion 25 minutes, reperfusion 30 minutes
[5] = Preischemia (Post Drug), lower = more cardiodepressant

IC50 [2]	IC50 [3]	Structure (SMILES)	DP (Double Product, HR x LVDP / 1,000) [1, 4]	FLOW (coronary blood flow) [1, 4]	HR (Heart Rate) [1, 4]	LVDP (Left Ventricular Developed Pressure) [1, 4]	LDH (Lactate Dehydrogenase Release) [1]	FLOW (coronary blood flow) ([1]; Preischemia (Post Drug))	HR (Heart Rate) ([1]; Preischemia (Post Drug))	LVDP (Left Ventricular Developed Pressure) ([1]; Preischemia (Post Drug))	DP (Double Product, HR x LVDP / 1,000) [1, 5]	LDH/DP [1]	ischemic selectivity among diltiazem, nifedipine and verapamil ([1]; Grover et al. methodology)
–	–	CN(C)CCCCN(C(=O)Cc1ccccc1)c1ccccc1SCc1ccccc1 [Example 5, N-[4-(Dimethylamino)butyl]-N-[2-[(phenylmethyl)thio]phenyl]benzeneacetamideoxalate (1:1) salt]	10	11	180 beats/min	51 mmHg	16.5 U/g	15	253 beats/min	115 mmHg	29	0.57	–
1200 nM	2600 nM	CN(C)CCCCN(C(=O)C=Cc1ccccc1)c1ccccc1SCc1ccccc1 [Example 24, N-[4-(Dimethylamino)butyl]-3-phenyl-N-[2-[(phenylmethyl)thio]phenyl]-2-propenamide, oxalate salt (1:1)]	–	–	–	–	–	–	–	–	–	–	–
–	–	CN(C)CCCN(C(=O)Cc1ccccc1)c1ccccc1OCc1ccccc1.O=C(O)C(=O)O [Example 6, N-[3-(Dimethylamino)propyl]-N-[2-(phenylmethoxy)phenyl]benzeneacetamide, oxalate salt (1:1)]	20	10	222 beats/min	89 mmHg	5.7 U/g	15	230 beats/min	113 mmHg	26	0.22	–
–	–	CN(C)CCCN(C(=O)c1ccccc1)c1ccccc1SCc1ccccc1.Cl [Example 7, 2'-(Benzylthio)-N-[3-(dimethylamino)propyl]benzanilide, hydrochloride]	15	8	220 beats/min	72 mmHg	6.7 U/g	11	218 beats/min	132 mmHg	29	0.24	–
–	–	COc1ccc([C@@H]2Sc3ccccc3N(CCN(C)C)C(=O)[C@@H]2OC(C)=O)cc1 [Diltiazem, reference compound]	24	17	231 beats/min	104 mmHg	10 U/g	22	217 beats/min	45 mmHg	10	0.98	greatest ischemic selectivity
